Patent publication US20250243171A1, “QUINAZOLINE COMPOUNDS FOR TREATMENT OF DISEASE” (Arthrosi Therapeutics, Inc., priority 2021, published 2025)

Tests used:
Assay in all cases: EC50 assay: Ba/F3 stable cell proliferation (CCK-8, 72 h)
Type in all cases: cell-based
Ba/F3 stable cells [1] = molecular target: T1, Ba/F3 stable cells (Homo sapiens, UniProt P00533, T790M/L858R, cells depend on it); details: Ba/F3-EGFR L858R-T790M cells
T1 construct: EC50 Ba/F3-EGFR L858R-T790M; other: Ba/F3-EGFR L858R-T790M cells, 72 h, CCK-8
Description: (§1) 4,000 Ba/F3 stable cells/90 μL/well were plated onto 96-well cell culture plate (Grenier, Cat.No. 655180) and incubated at 37° C. with a humidified atmosphere of 5% CO2 for 2 h. Then the cells were treated with 10 μL compounds at serial titration. The final DMSO concentration is 0.1%. The cells treated with 0.1% DMSO (Vetec, Cat.No.V900090) as a positive control (Max), and medium with 0.1% DMSO was as a negative control (Min). Incubated the cells at 37° C. for 72 h. 10 μL the cell proliferation reagent CCK-8 (Dojindo, Cat.No. CK04 1000T) was added into each well and incubated the plate at 37° C. for 4 hours, the GD value was measured by SPECTRAmax plus (Molecular Devices) at 450 nm. Data processing with Graphpad 7.0.

Ba/F3 stable cells [2] = molecular target: T2, Ba/F3 stable cells (Homo sapiens, UniProt P04626, DUP772-775, cells depend on it); details: Ba/F3-HER2 A775-G776insYVMA cells
T2 construct: EC50 Ba/F3-HER2 A775-G776insYVMA; other: Ba/F3-HER2 A775-G776insYVMA cells, 72 h, CCK-8
T2 sequence (P04626 with tags, fused parts or gaps DUP772-775): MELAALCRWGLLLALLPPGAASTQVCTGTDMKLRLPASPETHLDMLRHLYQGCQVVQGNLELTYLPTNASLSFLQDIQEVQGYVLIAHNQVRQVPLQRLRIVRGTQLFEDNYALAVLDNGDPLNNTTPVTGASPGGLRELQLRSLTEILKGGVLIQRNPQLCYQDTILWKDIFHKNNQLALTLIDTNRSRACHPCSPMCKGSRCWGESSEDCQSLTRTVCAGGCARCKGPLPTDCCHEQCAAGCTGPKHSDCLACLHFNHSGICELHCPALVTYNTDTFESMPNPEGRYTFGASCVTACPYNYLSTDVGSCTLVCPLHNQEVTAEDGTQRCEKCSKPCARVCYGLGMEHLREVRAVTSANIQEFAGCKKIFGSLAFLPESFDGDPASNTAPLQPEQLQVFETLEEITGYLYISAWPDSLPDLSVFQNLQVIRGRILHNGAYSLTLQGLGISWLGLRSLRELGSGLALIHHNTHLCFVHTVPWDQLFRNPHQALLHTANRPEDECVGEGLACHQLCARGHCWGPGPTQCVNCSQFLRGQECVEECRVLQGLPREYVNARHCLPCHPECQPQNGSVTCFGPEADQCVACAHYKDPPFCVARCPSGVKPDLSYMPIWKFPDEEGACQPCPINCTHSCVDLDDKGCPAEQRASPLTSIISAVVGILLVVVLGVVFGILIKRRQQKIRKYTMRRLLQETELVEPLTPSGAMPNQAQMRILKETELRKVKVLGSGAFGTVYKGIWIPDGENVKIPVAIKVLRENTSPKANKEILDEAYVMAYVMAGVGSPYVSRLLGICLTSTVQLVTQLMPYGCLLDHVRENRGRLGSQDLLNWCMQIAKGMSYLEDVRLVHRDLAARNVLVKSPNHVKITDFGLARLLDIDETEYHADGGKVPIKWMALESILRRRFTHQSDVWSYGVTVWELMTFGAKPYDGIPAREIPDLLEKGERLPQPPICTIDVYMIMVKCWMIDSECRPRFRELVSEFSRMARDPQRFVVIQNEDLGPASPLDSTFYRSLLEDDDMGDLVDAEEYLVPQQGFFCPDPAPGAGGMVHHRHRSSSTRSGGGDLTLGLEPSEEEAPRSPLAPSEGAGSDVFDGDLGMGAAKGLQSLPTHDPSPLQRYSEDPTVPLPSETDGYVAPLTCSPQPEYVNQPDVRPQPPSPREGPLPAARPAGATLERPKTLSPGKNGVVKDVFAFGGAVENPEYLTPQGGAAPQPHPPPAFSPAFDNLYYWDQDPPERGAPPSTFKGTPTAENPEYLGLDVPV
Description: as §1

Ba/F3 stable cells [3] = molecular target: T3, Ba/F3 stable cells (Homo sapiens, UniProt P00533, DUP767-769, cells depend on it); details: Ba/F3-EGFR V769-D770insASV cells
T3 construct: EC50 Ba/F3-EGFR V769-D770insASV; other: Ba/F3-EGFR V769-D770insASV cells, 72 h, CCK-8
T3 sequence (P00533 with tags, fused parts or gaps DUP767-769): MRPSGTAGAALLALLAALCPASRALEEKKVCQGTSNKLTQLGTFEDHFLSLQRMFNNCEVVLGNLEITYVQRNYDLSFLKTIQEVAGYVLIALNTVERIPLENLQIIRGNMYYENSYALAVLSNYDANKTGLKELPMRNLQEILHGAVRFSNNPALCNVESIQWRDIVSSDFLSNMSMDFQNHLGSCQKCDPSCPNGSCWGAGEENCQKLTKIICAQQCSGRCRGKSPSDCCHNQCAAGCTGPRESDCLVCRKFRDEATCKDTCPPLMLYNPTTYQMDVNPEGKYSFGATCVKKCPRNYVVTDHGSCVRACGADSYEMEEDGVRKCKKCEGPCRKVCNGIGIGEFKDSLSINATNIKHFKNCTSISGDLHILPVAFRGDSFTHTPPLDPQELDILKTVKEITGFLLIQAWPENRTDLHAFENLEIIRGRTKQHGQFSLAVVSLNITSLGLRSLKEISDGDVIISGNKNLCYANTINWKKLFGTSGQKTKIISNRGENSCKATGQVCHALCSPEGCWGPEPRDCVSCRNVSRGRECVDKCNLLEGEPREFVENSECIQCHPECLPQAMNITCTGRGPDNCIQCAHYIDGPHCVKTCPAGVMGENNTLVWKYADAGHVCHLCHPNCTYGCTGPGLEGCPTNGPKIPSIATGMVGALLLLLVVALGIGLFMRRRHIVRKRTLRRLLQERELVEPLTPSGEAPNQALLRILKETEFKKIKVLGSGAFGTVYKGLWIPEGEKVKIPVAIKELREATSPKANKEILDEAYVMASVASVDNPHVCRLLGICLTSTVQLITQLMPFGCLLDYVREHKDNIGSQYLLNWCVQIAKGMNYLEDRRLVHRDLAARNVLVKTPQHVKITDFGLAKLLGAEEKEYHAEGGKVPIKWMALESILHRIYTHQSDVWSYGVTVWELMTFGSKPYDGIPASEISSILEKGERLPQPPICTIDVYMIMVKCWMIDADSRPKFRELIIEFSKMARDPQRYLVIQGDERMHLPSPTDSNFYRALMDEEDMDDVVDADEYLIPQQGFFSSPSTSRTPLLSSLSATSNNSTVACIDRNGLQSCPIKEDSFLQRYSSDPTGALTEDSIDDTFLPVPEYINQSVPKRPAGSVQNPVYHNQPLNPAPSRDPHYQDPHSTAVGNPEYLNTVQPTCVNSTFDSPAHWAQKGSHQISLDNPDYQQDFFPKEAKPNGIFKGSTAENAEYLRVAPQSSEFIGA
Description: as §1

Ba/F3 stable cells [4] = molecular target: T4, Ba/F3 stable cells (Homo sapiens, UniProt P00533, DUP768-770, cells depend on it); details: Ba/F3-EGFR D770-N771insSVD cells
T4 construct: EC50 Ba/F3-EGFR D770-N771insSVD; other: Ba/F3-EGFR D770-N771insSVD cells, 72 h, CCK-8
T4 sequence (P00533 with tags, fused parts or gaps DUP768-770): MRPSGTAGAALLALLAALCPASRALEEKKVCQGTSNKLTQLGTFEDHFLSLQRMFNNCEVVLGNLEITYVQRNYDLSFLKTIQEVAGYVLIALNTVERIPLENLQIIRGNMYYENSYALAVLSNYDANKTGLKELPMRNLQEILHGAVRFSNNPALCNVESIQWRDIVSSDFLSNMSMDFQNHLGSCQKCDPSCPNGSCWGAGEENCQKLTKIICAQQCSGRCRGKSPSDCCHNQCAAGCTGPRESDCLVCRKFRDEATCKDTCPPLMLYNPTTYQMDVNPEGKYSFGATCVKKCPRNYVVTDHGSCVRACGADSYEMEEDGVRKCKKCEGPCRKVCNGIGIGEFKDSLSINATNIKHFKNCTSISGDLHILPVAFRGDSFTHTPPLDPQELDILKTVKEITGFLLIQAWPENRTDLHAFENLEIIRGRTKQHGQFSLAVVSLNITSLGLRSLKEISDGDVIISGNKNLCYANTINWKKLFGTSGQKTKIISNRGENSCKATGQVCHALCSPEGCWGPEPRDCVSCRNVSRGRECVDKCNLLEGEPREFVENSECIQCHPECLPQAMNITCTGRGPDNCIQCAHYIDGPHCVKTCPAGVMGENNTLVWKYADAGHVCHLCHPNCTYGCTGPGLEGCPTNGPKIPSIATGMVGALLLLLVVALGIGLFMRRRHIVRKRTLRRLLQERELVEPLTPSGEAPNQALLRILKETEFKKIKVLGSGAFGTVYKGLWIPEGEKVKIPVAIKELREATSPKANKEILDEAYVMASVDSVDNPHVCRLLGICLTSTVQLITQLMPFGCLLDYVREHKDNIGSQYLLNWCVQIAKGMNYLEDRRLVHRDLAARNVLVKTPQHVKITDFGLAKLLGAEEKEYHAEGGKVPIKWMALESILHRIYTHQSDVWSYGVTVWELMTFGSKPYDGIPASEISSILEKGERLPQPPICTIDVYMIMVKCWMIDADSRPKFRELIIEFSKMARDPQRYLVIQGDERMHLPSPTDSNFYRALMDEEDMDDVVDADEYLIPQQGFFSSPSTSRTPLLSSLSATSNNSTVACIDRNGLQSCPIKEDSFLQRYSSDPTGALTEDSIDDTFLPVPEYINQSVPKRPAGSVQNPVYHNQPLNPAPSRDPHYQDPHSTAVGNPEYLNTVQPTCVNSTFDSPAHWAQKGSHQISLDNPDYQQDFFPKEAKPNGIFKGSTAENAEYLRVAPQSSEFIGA
Description: as §1

Ba/F3 stable cells [5] = molecular target: T5, Ba/F3 stable cells (Homo sapiens, UniProt P00533, INS763FQEA, cells depend on it); details: Ba/F3-EGFR A763-Y764insFQEA cells
T5 construct: EC50 Ba/F3-EGFR A763-Y764insFQEA; other: Ba/F3-EGFR A763-Y764insFQEA cells, 72 h, CCK-8
Description: as §1

Ba/F3 stable cells [6] = molecular target: T6, Ba/F3 stable cells (Homo sapiens, UniProt P00533, DUP771-773, cells depend on it); details: Ba/F3-EGFR H773-V774insNPH cells
T6 construct: EC50 Ba/F3-EGFR H773-V774insNPH; other: Ba/F3-EGFR H773-V774insNPH cells, 72 h, CCK-8
T6 sequence (P00533 with tags, fused parts or gaps DUP771-773): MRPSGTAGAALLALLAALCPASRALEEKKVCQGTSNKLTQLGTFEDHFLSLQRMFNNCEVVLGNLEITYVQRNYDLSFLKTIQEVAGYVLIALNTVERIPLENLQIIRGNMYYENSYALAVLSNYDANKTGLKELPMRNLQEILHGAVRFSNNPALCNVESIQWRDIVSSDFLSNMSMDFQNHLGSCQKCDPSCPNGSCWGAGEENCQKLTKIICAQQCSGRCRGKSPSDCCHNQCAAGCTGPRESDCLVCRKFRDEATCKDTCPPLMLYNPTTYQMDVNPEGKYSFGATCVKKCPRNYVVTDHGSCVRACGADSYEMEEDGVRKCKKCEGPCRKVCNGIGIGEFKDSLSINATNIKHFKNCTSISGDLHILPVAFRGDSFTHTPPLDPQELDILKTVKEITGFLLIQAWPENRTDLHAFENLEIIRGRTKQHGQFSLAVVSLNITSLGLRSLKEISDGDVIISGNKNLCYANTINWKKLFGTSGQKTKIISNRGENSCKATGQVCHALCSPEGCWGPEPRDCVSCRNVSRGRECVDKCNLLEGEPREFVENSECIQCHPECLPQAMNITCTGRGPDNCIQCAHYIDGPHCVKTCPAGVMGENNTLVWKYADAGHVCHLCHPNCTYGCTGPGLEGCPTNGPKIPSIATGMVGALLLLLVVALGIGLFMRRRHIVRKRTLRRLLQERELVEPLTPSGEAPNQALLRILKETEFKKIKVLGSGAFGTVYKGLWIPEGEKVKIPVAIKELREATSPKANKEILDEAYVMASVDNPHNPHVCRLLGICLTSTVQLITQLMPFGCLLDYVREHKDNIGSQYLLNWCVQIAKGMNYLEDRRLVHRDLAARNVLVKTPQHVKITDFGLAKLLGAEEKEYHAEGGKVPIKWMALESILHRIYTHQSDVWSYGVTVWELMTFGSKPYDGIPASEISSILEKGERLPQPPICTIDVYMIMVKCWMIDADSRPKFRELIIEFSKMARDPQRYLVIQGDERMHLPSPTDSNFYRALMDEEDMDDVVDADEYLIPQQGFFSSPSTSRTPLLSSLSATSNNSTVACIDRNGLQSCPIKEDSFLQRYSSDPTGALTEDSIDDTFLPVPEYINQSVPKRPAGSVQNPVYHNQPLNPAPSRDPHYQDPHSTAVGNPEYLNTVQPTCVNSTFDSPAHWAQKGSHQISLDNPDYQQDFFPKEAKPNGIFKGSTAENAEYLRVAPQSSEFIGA
Description: as §1

| EC50 (Ba/F3 stable cells [1]) | EC50 (Ba/F3 stable cells [2]) | EC50 (Ba/F3 stable cells [3]) | EC50 (Ba/F3 stable cells [4]) | EC50 (Ba/F3 stable cells [5]) | EC50 (Ba/F3 stable cells [6]) | SMILES |
| --- | --- | --- | --- | --- | --- | --- |
| ≤ 200 nM | ≤ 200 nM | ≤ 200 nM | ≤ 200 nM | ≤ 200 nM | ≤ 200 nM | C=CC(=O)N1CC(c2cc3c(Nc4ccc(Cl)c(Cl)c4F)ncnc3cc2OCCN2CCN(C)CC2)C1 [Compound 21, 1-(3-(4-((3,4-dichloro-2-fluorophenyl)amino)-7-(2-(4-methylpiperazin-1-yl)ethoxy)quinazolin-6-yl)azetidin-1-yl)prop-2-en-1-one] |
| > 1000 nM | > 1000 nM | > 1000 nM | > 1000 nM | 200 to 1000 nM | > 1000 nM | C=CC(=O)N1CC(c2cc3c(Nc4ccc(Cl)c(Cl)c4F)ncnc3cc2O[C@H]2CCOC2)C1 [Compound 22, (S)-1-(3-(4-((3,4-dichloro-2-fluorophenyl)amino)-7-((tetrahydrofuran-3-yl)oxy)quinazolin-6-yl)azetidin-1-yl)prop-2-en-1-one] |
| ≤ 200 nM | ≤ 200 nM | ≤ 200 nM | ≤ 200 nM | ≤ 200 nM | ≤ 200 nM | C=CC(=O)N1CC(c2cc3c(Nc4ccc(Cl)c(Cl)c4F)ncnc3cc2OCCCN2CCOCC2)C1 [Compound 30, 1-(3-(4-((3,4-dichloro-2-fluorophenyl)amino)-7-(3-morpholinopropoxy)quinazolin-6-yl)azetidin-1-yl)prop-2-en-1-one] |
| > 1000 nM | ≤ 200 nM | 200 to 1000 nM | 200 to 1000 nM | ≤ 200 nM | ≤ 200 nM | C=CC(=O)NCC1COc2cc3ncnc(Nc4ccc(Cl)c(Cl)c4F)c3cc21 (stereo not drawn) [Compound 34, N-((4-((3,4-dichloro-2-fluorophenyl)amino)-6,7-dihydrofuro[3,2-g]quinazolin-6-yl)methyl)acrylamide] |
| > 1000 nM | > 1000 nM | > 1000 nM | > 1000 nM | > 1000 nM | > 1000 nM | [2H]C([2H])([2H])n1cn/c(=N\c2ccc(Cl)c(Cl)c2F)c2cc3c(cc21)OCC3CNC(=O)C=C (stereo not drawn) [Compound 35, (Z)—N-((4-((3,4-dichloro-2-fluorophenyl)imino)-1-trideuteriomethyl-1,4,6,7-tetrahydrofuro[3,2-g]quinazolin-6-yl)methyl)acrylamide] |
| 200 to 1000 nM | 200 to 1000 nM | ≤ 200 nM | 200 to 1000 nM | ≤ 200 nM | 200 to 1000 nM | C=C(F)C(=O)N1CC(c2cc3c(Nc4ccc(Cl)c(Cl)c4F)ncnc3cc2O[C@H]2CCOC2)C1 [Compound 37, (S)-1-(3-(4-((3,4-dichloro-2-fluorophenyl)amino)-7-((tetrahydrofuran-3-yl)oxy)quinazolin-6-yl)azetidin-1-yl)-2-fluoroprop-2-en-1-one] |
| > 1000 nM | > 1000 nM | 200 to 1000 nM | > 1000 nM | ≤ 200 nM | > 1000 nM | [2H]C([2H])([2H])Oc1cc2ncnc(Nc3ccc(Cl)c(Cl)c3F)c2cc1C1CN(C(=O)C(=C)F)C1 [Compound 39, 1-(3-(4-((3,4-dichloro-2-fluorophenyl)amino)-7-(methoxy-d3)quinazolin-6-yl)azetidin-1-yl)-2-fluoroprop-2-en-1-one] |

Further lines, the molecule ahead of its results:

| SMILES | EC50 (Ba/F3 stable cells [1]) | EC50 (Ba/F3 stable cells [2]) | EC50 (Ba/F3 stable cells [3]) | EC50 (Ba/F3 stable cells [4]) | EC50 (Ba/F3 stable cells [5]) | EC50 (Ba/F3 stable cells [6]) |
| --- | --- | --- | --- | --- | --- | --- |
| C=CC(=O)N1CC(c2cc3c(Nc4ccc(Cl)c(Cl)c4F)ncnc3cc2OC(F)F)C1 [Compound 23, 1-(3-(4-((3,4-dichloro-2-fluorophenyl)amino)-7-(difluoromethoxy)quinazolin-6-yl)azetidin-1-yl)prop-2-en-1-one] | ≤ 200 nM | 200 to 1000 nM | ≤ 200 nM | ≤ 200 nM | ≤ 200 nM | ≤ 200 nM |
| C=CC(=O)N1CC(c2cc3c(Nc4ccc(Cl)c(Cl)c4F)ncnc3cc2OC2COC2)C1 [Compound 25, 1-(3-(4-((3,4-dichloro-2-fluorophenyl)amino)-7-(oxetan-3-yloxy)quinazolin-6-yl)azetidin-1-yl)prop-2-en-1-one] | ≤ 200 nM | ≤ 200 nM | ≤ 200 nM | ≤ 200 nM | ≤ 200 nM | ≤ 200 nM |
| C=CC(=O)N1CC(c2cc3c(Nc4ccc(Cl)c(Cl)c4F)ncnc3cc2OCCN(C)C)C1 [Compound 26, 1-(3-(4-((3,4-dichloro-2-fluorophenyl)amino)-7-(2-(dimethylamino)ethoxy)quinazolin-6-yl)azetidin-1-yl)prop-2-en-1-one] | 200 to 1000 nM | 200 to 1000 nM | ≤ 200 nM | 200 to 1000 nM | ≤ 200 nM | 200 to 1000 nM |
| C=CC(=O)N1CC(c2cc3c(Nc4ccc(Cl)c(Cl)c4F)ncnc3cc2OC2CCOCC2)C1 [Compound 27, 1-(3-(4-((3,4-dichloro-2-fluorophenyl)amino)-7-((tetrahydro-2H-pyran-4-yl)oxy)quinazolin-6-yl)azetidin-1-yl)prop-2-en-1-one] | 200 to 1000 nM | > 1000 nM | ≤ 200 nM | 200 to 1000 nM | ≤ 200 nM | ≤ 200 nM |
| C=CC(=O)N1CC(c2cc3c(Nc4ccc(Cl)c(Cl)c4F)ncnc3cc2OCCN2CCOCC2)C1 [Compound 28, 1-(3-(4-((3,4-dichloro-2-fluorophenyl)amino)-7-(2-morpholinoethoxy)quinazolin-6-yl)azetidin-1-yl)prop-2-en-1-one] | 200 to 1000 nM | 200 to 1000 nM | ≤ 200 nM | 200 to 1000 nM | ≤ 200 nM | ≤ 200 nM |
| C=CC(=O)N1CC(c2cc3c(Nc4ccc(Cl)c(Cl)c4F)ncnc3cc2O[C@@H]2CCOC2)C1 [Compound 29, (R)-1-(3-(4-((3,4-dichloro-2-fluorophenyl)amino)-7-((tetrahydrofuran-3-yl)oxy)quinazolin-6-yl)azetidin-1-yl)prop-2-en-1-one] | ≤ 200 nM | 200 to 1000 nM | ≤ 200 nM | 200 to 1000 nM | ≤ 200 nM | ≤ 200 nM |
| C=CC(=O)N1CC(c2cc3c(Nc4ccc(Cl)c(Cl)c4F)ncnc3cc2OCCCN2CCN(C)CC2)C1 [Compound 31, 1-(3-(4-((3,4-dichloro-2-fluorophenyl)amino)-7-(3-(4-methylpiperazin-1-yl)propoxy)quinazolin-6-yl)azetidin-1-yl)prop-2-en-1-one] | ≤ 200 nM | 200 to 1000 nM | ≤ 200 nM | ≤ 200 nM | ≤ 200 nM | ≤ 200 nM |
| [2H]C([2H])([2H])Oc1cc2ncnc(Nc3ccc(Cl)c(Cl)c3F)c2cc1C1CN(C(=O)C=C)C1 [Compound 32, 1-(3-(4-((3,4-dichloro-2-fluorophenyl)amino)-7-(methoxy-d3)quinazolin-6-yl)azetidin-1-yl)prop-2-en-1-one] | ≤ 200 nM | ≤ 200 nM | ≤ 200 nM | ≤ 200 nM | ≤ 200 nM | ≤ 200 nM |
| C=CC(=O)N1CC(c2cc3c(Nc4ccc(F)c(Cl)c4F)ncnc3cc2O[C@H]2CCOC2)C1 [Compound 33, (S)-1-(3-(4-((3-chloro-2,4-difluorophenyl)amino)-7-((tetrahydrofuran-3-yl)oxy)quinazolin-6-yl)azetidin-1-yl)prop-2-en-1-one] | ≤ 200 nM | ≤ 200 nM | ≤ 200 nM | ≤ 200 nM | ≤ 200 nM | ≤ 200 nM |
| C=C(F)C(=O)N1CC(c2cc3c(Nc4ccc(Cl)c(Cl)c4F)ncnc3cc2OC)C1 [Compound 38, 1-(3-(4-((3,4-dichloro-2-fluorophenyl)amino)-7-methoxyquinazolin-6-yl)azetidin-1-yl)-2-fluoroprop-2-en-1-one] | > 1000 nM | > 1000 nM | 200 to 1000 nM | > 1000 nM | ≤ 200 nM | 200 to 1000 nM |
| C=C(F)C(=O)N[C@H]1C[C@@H](Oc2cc3c(Nc4ccc(Cl)c(Cl)c4F)ncnc3cc2OC)C1 [Compound 40, N-((1s,3s)-3-((4-((3,4-dichloro-2-fluorophenyl)amino)-7-methoxyquinazolin-6-yl)oxy)cyclobutyl)-2-fluoroacrylamide] | 200 to 1000 nM | 200 to 1000 nM | ≤ 200 nM | 200 to 1000 nM | ≤ 200 nM | 200 to 1000 nM |
